According to patent publication US5298494A, “Monosaccharides having anti-proliferation and anti-inflammatory activity, compositions and uses thereof” (Greenwich Pharmaceuticals Incorporated, priority 1993, dated 1994):

System: T cell proliferation in mouse spleen cell mixed lymphocyte cultures
Assay: Mixed Lymphocyte Reaction (MLR) assay
Assay type: cell-based, mouse (Balb/c responder, C57B1/6 stimulator)
Source text: The pharmacologic assays performed to determine the immunomodulatory effects of the experimental compounds in vitro include the Mixed Lymphocyte Reaction (MLR) and the ConA blastogenesis assay. These assays were used to determine the inhibitory effects of the compounds of the invention on T lymphocyte activation and proliferation. Since inflammation at the cellular level is characterized by T lymphocyte recruitment, activation and proliferation, these assays are appropriate to use as screens for novel compounds having therapeutic potential in the treatment of disorders in which inflammatory mechanisms are involved.
The MLR is a classical assay used to measure T cell function by studying the proliferative response of T cells which are activated in vitro by genetically disparate stimulator cells. This is accomplished by co-culturing spleen cells from two different strains of mice. Splenic T cell proliferation occurs as a result of cellular activation signals generated by the ongoing cellular interactions.
Balb/c mice were euthanised by cervical dislocation and their spleens removed. Single cell suspensions of the spleens were prepared in culture medium (hepes buffered RPMI-1640 supplemented with 10% fetal calf serum, 2mM glutamine, 500 units penicillin/ streptomycin, and 4×10^-5 M 2-mercaptoethanol) using a Teflon pestle. The cells were centrifuged at 1500 rpm and the pellets resuspended in ACT (0.15M tris, 0.14M ammonium chloride, pH 7.2) in order to lyse the red blood cells. After a 5 minute incubation in a 37 C. waterbath, the cells were resuspended in culture medium and counted. C57B1/6 spleen cells which were used as stimulator cells, were also prepared by this method. The stimulator cells were treated with 100 ug/ml of mitomycin c for 1 hour at 37 C. (to inhibit stimulatory cell proliferation) and were then washed 5 times in culture medium. The proliferative responses were measured by culturing 2.5×10^5 responder cells with 5×10^5 stimulatory cells in 96 well microtiter plates in the presence or absence of various doses of test compounds or vehicle (DMSO). Syngeneic control cultures using mitomycin c treated Balb/c spleen cells as stimulator cells were also run. All cultures were run in triplicate.
Solutions of compounds of the present invention in DMSO were prepared at a stock concentration of 120 Mm. Dilutions were made in culture medium to the following concentrations: 3, 10, 30, 100, and 300 uM. The vehicle (DMSO) was used as a negative control.
After incubation of for 5 days at 37 C. with 5% CO2, the amount of cell proliferation was measured by adding 20 ul of MTT (3-[4,5-dimethylthiazol-2-yl]-2,5diphenyl-tetrazolium bromide) (10 mg/ml in phosphate buffered saline) to each well. Plates were incubated for 4 hours at 37 C., after which 180 ul of 10% sodium dodecyl sulphate in phosphate buffered saline was added. After an overnight incubation, the optical density (OD) of each well was read on a Molecular Devices microplate reader at 570-650 nm. The results were determined by calculating the difference between the means of the allogeneic cultures and the means of the syngenic cultures for each test article concentration. Differences of the test article groups were compared to the control group and the percent change from the control was determined.

CCCCCCCCCCCCCCCOCC(O)C1OC2OC(C)(C)OC2C1O [IIId, 1,2-O-Isopropylidene-6-O-pentadecyl-α-D-glucofuranose]
Mean O.D. Allogenic (3 um): 0.210 O.D.
Mean O.D. Syngeneic (3 um): 0.138 O.D.
Mean O.D. Allogenic (10 um): 0.197 O.D.
Mean O.D. Syngeneic (10 um): 0.128 O.D.
Mean O.D. Allogenic (30 um): 0.104 O.D.
Mean O.D. Syngeneic (30 um): 0.032 O.D.
Mean O.D. Allogenic (100 um): 0.021 O.D.
Mean O.D. Syngeneic (100 um): 0.019 O.D.
Mean O.D. Allogenic (300 um): 0.015 O.D.
inhibition at 3 µM (Mus musculus, Lymphocyte, 3 um, read-out: % Change From Control, MLR): 13%
inhibition at 10 µM (Mus musculus, Lymphocyte, 10 um, read-out: % Change From Control, MLR): 17%
inhibition at 30 µM (Mus musculus, Lymphocyte, 30 um, read-out: % Change From Control, MLR): 13%
inhibition at 100 µM (Mus musculus, Lymphocyte, 100 um, read-out: % Change From Control, MLR): 98%
